According to patent US8487093B2, “β-lactamase inhibitors” (Merck Sharp & Dohme Corp., priority 2008, dated 2013):
pIC50: −log10 of the molar value. Read-outs that look alike come from different tables or passages of the source.

Legend:
[1] = tested on: CL 5701 (Pseudomonas aeruginosa; Pa AmpC); assay: Synergy assay (checkerboard) with imipenem against P. aeruginosa strain CL5701; type: cell-based; conditions: for 2X Synergy CL5701: BLI concentration reducing the MIC of imipenem by a factor of 2, P. aeruginosa strain CL5701
[2] = tested on: CL 6569 (Klebsiella pneumoniae; KPC-2); assay: Synergy assay (checkerboard) with imipenem against K. pneumoniae strain CL6569; conditions: for 16X Synergy CL6569: BLI concentration reducing the MIC of imipenem by a factor of 16, K. pneumoniae strain CL6569; for 32X Synergy CL6569: BLI concentration reducing the MIC of imipenem by a factor of 32, K. pneumoniae strain CL6569; for 64X Synergy CL6569: BLI concentration reducing the MIC of imipenem by a factor of 64, K. pneumoniae strain CL6569
Excerpt: The assay determines the concentration of a β-lactamase inhibitor required to reduce the MIC of a β-lactam antibiotic by one-half, one-quarter, one-eighth, one-sixteenth and one-thirty-second against strains of bacteria normally resistant to the antibiotic in question. This is accomplished by titrating the BLI in a serial dilution across a microtiter plate while at the same time titrating the antibiotic in a serial dilution down the microtiter plate and then inoculating the plate with the bacterial strain in question and allowing the bacteria to grow up overnight. Each well in this microplate checkerboard contains a different combination of concentrations of the inhibitor and the antibiotic allowing a full determination of any synergy between the two.
Plates are left at 37° C. for about 20 hours and scored for growth by eye.
Synergy may be expressed as a ratio of the minimum inhibitory concentration (MIC) of an antibiotic tested in the absence of a β-lactamase inhibitor to the MIC of the same antibiotic tested in the presence of the β-lactamase inhibitor. […] Alternatively, the synergy effect may be expressed as a factor, again, utilizing a concentration of the BLI to lower the MIC of the antibiotic.

[3] = molecular target: AmpC (P. aeruginosa) (Pseudomonas aeruginosa (strain ATCC 15692 / DSM 22644 / CIP 104116 / JCM 14847 / LMG 12228 / 1C / PRS 101 / PAO1), UniProt P24735); assay: biochemical
[4] = molecular target: KPC-2 (K. pneumoniae) (Klebsiella pneumoniae, UniProt Q9F663); assay: biochemical
[5] = BLI concentration reducing the MIC of imipenem by a factor of 4, P. aeruginosa strain CL5701
[6] = BLI concentration reducing the MIC of imipenem by a factor of 8, P. aeruginosa strain CL5701
[7] = Table 2, read-out: K.p. KPC-2 IC50
[8] = Table 3, read-out: K.p. KPC-2 IC50
[9] = Table 2, read-out: P.a. AmpC IC50
[10] = Table 3, read-out: P.a. AmpC IC50

KPC-2 (K. pneumoniae), sequence (Q9F663 25-293 limits assumed): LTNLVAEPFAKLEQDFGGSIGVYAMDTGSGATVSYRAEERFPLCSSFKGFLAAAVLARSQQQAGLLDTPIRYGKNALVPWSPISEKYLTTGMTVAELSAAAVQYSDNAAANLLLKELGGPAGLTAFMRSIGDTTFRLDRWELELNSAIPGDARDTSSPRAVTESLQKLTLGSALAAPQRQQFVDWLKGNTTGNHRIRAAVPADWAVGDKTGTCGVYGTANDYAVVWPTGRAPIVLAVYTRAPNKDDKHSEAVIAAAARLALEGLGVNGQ
AmpC (P. aeruginosa), sequence (P24735 27-397): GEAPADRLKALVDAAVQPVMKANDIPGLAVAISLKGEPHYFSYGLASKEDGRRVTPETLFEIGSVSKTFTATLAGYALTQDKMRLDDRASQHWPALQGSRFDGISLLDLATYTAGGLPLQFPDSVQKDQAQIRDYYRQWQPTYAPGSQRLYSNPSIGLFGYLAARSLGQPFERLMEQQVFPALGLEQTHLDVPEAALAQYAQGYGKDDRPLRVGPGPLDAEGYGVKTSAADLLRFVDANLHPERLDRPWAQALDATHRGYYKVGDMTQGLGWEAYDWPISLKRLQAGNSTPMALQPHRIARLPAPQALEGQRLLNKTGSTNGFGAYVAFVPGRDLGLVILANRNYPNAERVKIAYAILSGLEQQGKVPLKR

pIC50 [4, 8] | pIC50 [3, 10] | Structure (SMILES) | 2X Synergy CL5701 [1] | 4X Synergy CL5701 [1, 5] | 8X Synergy CL5701 [1, 6] | 16X Synergy CL6569 [2] [µM] | 32X Synergy CL6569 [2] [µM] | 64X Synergy CL6569 [2] [µM] | pIC50 [3] | pIC50 [4, 7] | pIC50 [3, 9] | pIC50 ([4]; K.p. KPC-2 IC50, Table 2) | 4X Synergy CL5701 [1] [µM] | 8X Synergy CL5701 [1] [µM]
– | – | O=C(NC1CCNCC1)[C@@H]1CC[C@@H]2CN1C(=O)N2OS(=O)(=O)O [Example 1, (2S,5R)-7-oxo-N-piperidin-4-yl-6-(sulfooxy)-1,6-diazabicyclo[3.2.1]octane-2-carboxamide] | 0.2 µM | 3.12 µM | 6.25 µM | 6.25 | 12.5 | 12.5 | – | – | – | – | – | –
– | – | O=C(N[C@@H]1CCNC1)[C@@H]1CC[C@@H]2CN1C(=O)N2OS(=O)(=O)O [Example 4, (2S,5R)-7-Oxo-N-[(3R)-pyrrolidin-3-yl]-6-(sulfooxy)-1,6-diazabicyclo[3.2.1]-octane-2-carboxamide] | 100/100/>100 μM | 100/100/>100 μM | 100/100/>100 μM | 50 | 100 | 100 | – | – | 4.54 | 5.36 | – | –
– | – | O=C(Nc1ccncc1)[C@@H]1CC[C@@H]2CN1C(=O)N2OS(=O)(=O)O [Example 6, (2S,5R)-7-Oxo-N-pyridin-4-yl-6-(sulfooxy)-1,6-diazabicyclo[3.2.1]octane-2-carboxamide] | 12.5 µM | – | – | 50 | 50 | > 100 | 8.22 | – | – | – | 25 | 100
8.10 | 7.96 | COc1cc(NC(=O)[C@@H]2CC[C@@H]3CN2C(=O)N3OS(=O)(=O)O)ccn1 [Example 7, (2S,5R)—N-(2-Methoxypyridin-4-yl)-7-oxo-6-(sulfooxy)-1,6-diazabicyclo[3.2.1]octane-2-carboxamide] | 50 µM | 100 µM | > 100 µM | 25 | 50 | > 100 | – | 8.10 | 8.96 | – | – | –
7.80 | 7.80 | CN(C)c1cc(NC(=O)[C@@H]2CC[C@@H]3CN2C(=O)N3OS(=O)(=O)O)ccn1 [Example 8, (2S,5R)—N-[2-(Dimethylamino)pyridin-4-yl]-7-oxo-6-(sulfooxy)-1,6-diazabicyclo[3.2.1]octane-2-carboxamide] | 12.5 µM | 100 µM | > 100 µM | 25 | 25 | 50 | – | 8.80 | 8.80 | – | – | –
– | – | NCc1ccc(NC(=O)[C@@H]2CC[C@@H]3CN2C(=O)N3OS(=O)(=O)O)cc1 [Example 9, (2S,5R)—N-[4-(aminomethyl)phenyl]-7-oxo-6-(sulfooxy)-1,6-diazabicyclo[3.2.1]octane-2-carboxamide] | 0.78 µM | 3.12 µM | 6.25 µM | 6.25 | 6.25 | 12.5 | – | 7.14 | 7.70 | – | – | –
7.92 | 7.21 | CC(=O)Oc1ccc(C(=O)NCC(CNC(=O)c2ccc(OC(C)=O)c(OC(C)=O)c2)OC(=O)[C@@H]2CC[C@@H]3CN2C(=O)N3OS(=O)(=O)O)cc1OC(C)=O [Example 117] | – | – | – | – | – | – | – | – | – | – | – | –
– | – | CC1(C)[C@H](C(=O)O)N2C(=O)C[C@H]2S1(=O)=O [Sulbactam, sulbactam, reference compound] | – | – | – | – | – | – | – | 4.48 | 4.77 | – | – | –

Structure (SMILES) | pIC50 [4, 8] | pIC50 [3, 10] | 2X Synergy CL5701 [1] | 4X Synergy CL5701 [1, 5] | 8X Synergy CL5701 [1, 6] | 16X Synergy CL6569 [2] [µM] | 32X Synergy CL6569 [2] [µM] | 64X Synergy CL6569 [2] [µM] | pIC50 [3] | pIC50 [4, 7] | pIC50 [3, 9] | pIC50 ([4]; K.p. KPC-2 IC50, Table 2) | 4X Synergy CL5701 [1] [µM] | 8X Synergy CL5701 [1] [µM]
O=C(N[C@H]1CCCNCC1)[C@@H]1CC[C@@H]2CN1C(=O)N2OS(=O)(=O)O [Example 2, (2S,5R)—N-[(4S)-Azepan-4-yl]-7-oxo-6-(sulfooxy)-1,6-diazabicyclo[3.2.1]-octane-2-carboxamide] | 6.61 | – | 3.12 µM | 6.25 µM | 6.25 µM | 6.25 | 12.5 | 25 | 7.16 | 6.61 | – | – | – | –
